From BindingDB's records for doi:10.1021/jm025558r (Friedrich-Alexander University, 2002) come the findings set out here.

Test [1] deals with D(1) dopamine receptor (Sus scrofa). The test can be described thus: Binding affinity for porcine Dopamine receptor D1 by [3H]-SCH- 23390 displacement.
For test [2], the target named is 5-hydroxytryptamine receptor 1A (Sus scrofa). The test can be described thus: Displacement of [3H]- 8-OH-DPAT from porcine 5-hydroxytryptamine 1A receptor.

On to `O=C(NCCCCN1CCN(c2cccc(Cl)c2Cl)CC1)c1cc2ccccc2[te]1` [Benzo[b]tellurophene-2-carboxylic acid {4-[4-(2,3-dichloro-phenyl)-piperazin-1-yl]-butyl}-amide], for which the Ki in test [1] worked out at 1.4 µM; in test [2] it was 0.125 µM.
